Here are results for 68 compounds from PubChem BioAssay AID179 (DTP/NCI, 2004).

Activity calls are given as the source filed them.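 How the source made its calls: active means compounds giving half or more protection of infected cells from virus-caused growth loss, again on retest; inactive means the rest.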 Where a SMILES comes first, the peptide text is derived from it. Bridges are numbered along the chain shown (N, C = ends). [ ]: non-standard residue; d: D form. Orn = NCCC[CH](N)C(=O)O

The subject of this assay is CEM cells HIV-1 protection, formazan growth assay. Briefly: NCI AIDS Antiviral Assay. To be noted: for IC50: measured here: growth of uninfected CEM cells. The method, then:
The ability of compounds to protect human CEM cells from HIV-1 infection is measured as a screen for new compounds capable of inhibiting the HIV virus. Five concentrations of drug were tested on uninfected and infected cells and cell growth was measured using a soluble formazan assay. […] Compounds that provided at least 50% protection were retested. Compounds that provided at least 50% protection on retest were listed as moderately active. Compounds that reproducibly provided 100% protection were listed as confirmed active. […] Note that the inability to provide protection could be due to toxicity.

With `C=CC1=C(C)C2=NC1=CC1=NC(=CC3=C(C)C4=C(O)C(C(=O)OC)C(=C5NC(=C2)C(C)C5CCC(=O)OC/C=C(\C)CCCC(C)CCCC(C)CCCC(C)C)C4=N3)C(CC)=C1C` (stereo not drawn), the EC50 was more than 100 µM and the IC50 was 2.14 µM. Turning to `O=C1C(Cl)C(c2cccc([N+](=O)[O-])c2)N1n1cnc2ccccc2c1=O` (stereo not drawn), the EC50 was more than 10 µM and the IC50 was more than 10 µM. For the compound `Cc1cc(S(=O)(=O)Nc2nnc3ccccn23)c(S)cc1Cl`, the EC50 is 102 µM and the IC50 is 380 µM. In the case of `CCOc1ccccc1NC(=O)C(=O)C1C(=O)Nc2ccccc2S1=O` (stereo not drawn), the outcome was inactive. For the compound `O=c1cc(-c2ccccc2)oc2ccc(O)cc12`, the EC50 was more than 200 µM and the IC50 is 67.6 µM. For `Cn1/c(=N\S(=O)(=O)c2ccccc2)n(S(=O)(=O)c2ccccc2)c2ccccc21` the same measures were more than 200 µM and more than 200 µM.

As for `COC(=O)c1cc2ccccc2c(=O)s1`, the EC50 was more than 16.2 µM and the IC50 is more than 16.2 µM.

For `O=C1OC(Cl)C(N=P(c2ccccc2)(c2ccccc2)c2ccccc2)=C1Cl` (stereo not drawn), the EC50 was more than 12.3 µM and the concentration for half-maximal inhibition (IC50) came to 9.33 µM. Take `Cc1cccc(NS(=O)(=O)c2ccc3c(c2)OCCOCCOCCOCCO3)c1`: the EC50 is more than 200 µM and the IC50 stood at 158 µM. For `CC(=O)c1ccc(N=Nc2ccc3nonc3c2N)cc1` the same measures were more than 200 µM and more than 200 µM.

As for `CCCCCCC(c1ccc(O)c(C(=O)O)c1)c1ccc(O)c(C(=O)O)c1`, the EC50 is more than 1000 µM and the concentration for half-maximal inhibition (IC50) is 166 µM.

`CC1c2c(cc(OC(=O)c3cccc(S(=O)(=O)F)c3)nc2OC(=O)c2cccc(S(=O)(=O)F)c2)C(=O)N1Cc1ccccc1` (stereo not drawn): the EC50 is more than 11.2 µM and the IC50 worked out at 1.86 µM. Take `Cc1ccc(S(=O)(=O)Sc2ccccc2)cc1`: the EC50 was more than 135 µM and the IC50 came to 21.9 µM. For the compound `CCN(CC)C1Oc2cc3c(cc2C(c2cccc(OC)c2OC)C1C)OCO3` (stereo not drawn), the EC50 was more than 200 µM and the IC50 came to 1.58 µM.

Consider `CC1c2c(Cl)nc3ccccc3c2Oc2c1c(Cl)nc1ccccc21`, for which the EC50 was more than 14.1 µM and the IC50 is more than 14.1 µM. As to `Cc1c2n(c3ccccc13)CC1C2N(C)OC1(C)C` (stereo not drawn), the EC50 is more than 263 µM and the IC50 is more than 263 µM. For `COc1ccc(NC2=NCCO2)c2ccccc12`, the EC50 is more than 200 µM and the IC50 worked out at 46.8 µM. On to `CC1=Nc2cc(C(=O)c3ccccc3)ccc2N=C(c2c(O)c3ccc4ccccc4c3oc2=O)C1`, for which the EC50 was more than 20 µM and the IC50 was more than 20 µM. With `CC(=O)Nc1cc2c(cc1[N+](=O)[O-])-c1cc([N+](=O)[O-])c(NC(C)=O)cc1C2=O`, the EC50 is more than 200 µM and the IC50 was 25.7 µM. Turning to `CC(C)(C)C(=O)O[C@@H]1COC2C(O)COC21` (stereo partly drawn), the EC50 was more than 1070 µM and the IC50 is 977 µM. With `CC(C)CC(NC(=O)C(CSc1ccc([N+](=O)[O-])cc1)Cc1ccccc1)C(=O)Nc1ccccc1` (stereo not drawn), the EC50 was more than 100 µM and the IC50 was more than 100 µM. Turning to `CC(=O)CCCC(CC(C)O)[Si](C)(C)C` (stereo not drawn), the EC50 is more than 1070 µM and the IC50 came to 562 µM. Turning to `C1CCCN(N2CCOCC2)CC1`, the EC50 was more than 200 µM and the IC50 was more than 200 µM. Consider `O=c1[nH]nc(NNc2ccccc2)c2nnn(C3CCCCC3)c12`, for which the EC50 was more than 200 µM and the IC50 was 12.6 µM. Turning to `c1ccc2nc3cc4c(cc3nc2c1)NC12CCCCC1CC1=C(CCCC1)N42` (stereo not drawn), the EC50 was more than 200 µM and the IC50 stood at 3.24 µM. For `CC1=CC(=O)N2C(OC[C@@H]2c2ccccc2)O1` (stereo partly drawn), the EC50 was more than 562 µM and the IC50 is more than 562 µM.

With `CC(C)C1NC(=O)CC(c2ccccc2)N(N=O)C1c1ccccc1` (stereo not drawn), the EC50 was more than 77.6 µM and the IC50 was more than 77.6 µM.

As for `CCOC(=O)c1ccc(CSc2ccc(N)cc2)cc1`, the EC50 was more than 457 µM and the IC50 came to 240 µM. Turning to `COC(=O)CC1NC(=O)[C@@H]1C(C)O` (stereo partly drawn), the EC50 is more than 251 µM and the IC50 was more than 251 µM. `CC(O)C1OC(n2cnc3c(=O)[nH]c(N)nc32)C(O)C1O` (stereo not drawn): the EC50 was more than 170 µM and the IC50 was more than 170 µM. For the compound `CC(=O)NC1=CC(=O)C=C(Cl)C1=O`, the EC50 was more than 200 µM and the IC50 was 32.4 µM. `[N-]=[N+]=Nc1cc(=O)[nH]nc1-c1ccccc1`: the EC50 is more than 200 µM and the IC50 is more than 200 µM.

Turning to `O=C1CS(=O)(=O)C(c2ccc(F)cc2)N1N1C(=O)CS(=O)(=O)C1c1ccc(F)cc1` (stereo not drawn), the EC50 is more than 200 µM and the IC50 was more than 200 µM. Turning to `COc1ccc(/C=C\c2cc(OC)c(OC)c(OC)c2)cc1OC(=O)C(N)CCC(=O)O` (stereo not drawn), the EC50 was more than 447 µM.

Take `Cc1ccc2c(c1)CSCCO2`: the EC50 is more than 105 µM and the IC50 is 14.8 µM. In the case of `C=CCNC(=S)Nc1ccccn1`, the EC50 is more than 200 µM and the IC50 is more than 200 µM. `N#CCCC1(CCC#N)CCCCCCCCC(CCC#N)(CCC#N)C(=O)C1=O`: the EC50 is more than 200 µM and the IC50 is more than 200 µM. With `O=C1CCCC(O)=C1SC1=C(O)CCCC1=O`, the result was inactive. Still for that read-out and setting: the same measure for `CN(C)CCNC(c1ccccc1)C(O)c1ccccc1` (stereo not drawn): “inactive”. With `CC1=C(O)c2cn(C)cc2C(=O)C1=O`, the outcome was inactive.

Turning to `CCOC(=O)c1cnc2c(ccc3ncccc32)c1NCCCN(CC)CC`, the EC50 is more than 69.2 µM and the IC50 worked out at 9.55 µM. As to `OC12c3ccccc3C1CCCCC2N1CCCC1` (stereo not drawn), the EC50 was more than 200 µM and the IC50 is more than 200 µM. As to `Cc1cc(-c2ccccc2)nc(Nc2nc3ccccc3o2)n1`, the EC50 was more than 61.7 µM and the IC50 is more than 61.7 µM. Regarding `CN1C(=O)C(O)CC1c1ccccc1C(F)(F)F` (stereo not drawn), the EC50 is more than 200 µM and the 50% inhibitory concentration (IC50) was more than 200 µM. For `O=C(NC(=O)c1cn(C2OC(CO)C(O)C2O)c(=O)[nH]c1=O)OCc1ccccc1` (stereo not drawn), the EC50 was more than 589 µM and the IC50 is more than 589 µM. In the case of `COc1ccc(/C=C2\SC(=S)N(/C=C/c3nc4ccccc4[nH]c3=O)C2=O)cc1OC`, the EC50 was more than 200 µM and the IC50 stood at 32.4 µM.

For the compound `Cc1cc(N(CCC#N)CCC#N)ccc1/C=C1N=C(/C=C\c2ccccc2)N(c2ccc(Cl)cc2)C\1=O`, the outcome was inactive.

Turning to `CCOC(=O)[C@H]1Nc2c(cccc2[N+](=O)[O-])[C@H]2OCC[C@@H]12`, the EC50 is more than 447 µM and the IC50 was more than 447 µM. In the case of `NC(=O)C1CC(=O)NCCCC(NC(=O)C(N)Cc2ccc(O)cc2)C(=O)NC(Cc2ccccc2)C(=O)N1` (stereo not drawn) (H-Y[Orn]FD-NH2; lactam 2-4; configuration not given here), the EC50 was more than 100 µM and the IC50 was more than 100 µM. With `COc1cccc(/C=C/c2nc3ccccc3nc2/C=C/c2cccc(OC)c2OC)c1OC`, the EC50 is more than 200 µM and the IC50 was 55 µM. Regarding `CCCCCCCCCCCCC(C(=O)O)C(=O)O`, the EC50 is more than 251 µM and the IC50 is more than 251 µM.

In the case of `Cc1c(C(=O)c2ccccc2)n(COCCC[Se]c2ccccc2)c(=O)[nH]c1=O`, the EC50 is more than 200 µM and the IC50 came out at 18.2 µM.

As to `Cc1cc2c(C(C)C)c(O)c(O)c(C=Nc3ccccc3S)c2c(O)c1-c1c(C)cc2c(C(C)C)c(O)c(O)c(C=Nc3ccccc3S)c2c1O`, the EC50 was more than 200 µM and the IC50 was determined as 16.2 µM.

Regarding `CCC1C(C)C=CN1c1nc(N)nc(NS(=O)(=O)c2cc(C)c(Cl)cc2S)n1` (stereo not drawn), the EC50 was 129 µM and the IC50 is more than 200 µM.

As to `CCOC(=O)c1c(N)n(-c2ccccc2)c(=O)n(-c2ccccc2)c1=O`, the EC50 was more than 708 µM and the IC50 was found to be 372 µM. With `COc1ccc(/C=C2/SC(c3ccccc3)N(NC(=O)CCCCCCCCC(=O)NN3C(=O)/C(=C\c4ccc(OC)c(OC)c4)SC3c3ccccc3)C2=O)cc1OC` (stereo not drawn), the EC50 was more than 200 µM and the IC50 is 91.2 µM.

On to `N/N=C(\CC1OC(=O)c2ccccc21)c1ccco1` (stereo not drawn), for which the EC50 was more than 977 µM and the IC50 worked out at 617 µM.

For the compound `Cc1cc2[nH]c3c(C#N)c(O)c(C)c(=O)n3c2cc1C`, the EC50 was more than 166 µM and the IC50 was more than 166 µM. Regarding `CCCCCCOC(=O)Nc1nnc(SSC2=NN=CC2NC(=O)OCCCCCC)s1` (stereo not drawn), the EC50 is more than 200 µM and the IC50 came out at 19.5 µM.

Regarding `O=C1C(=O)c2ccccc2C(O)=C1CCCC1CCC2CCCCC2C1` (stereo not drawn), the EC50 was more than 200 µM and the IC50 was 8.32 µM. As for `CCOC(=O)c1c(-c2ccccc2)oc(=O)c(Cc2cccc3cccnc23)c1-c1ccccc1`, the EC50 is more than 200 µM and the IC50 was more than 200 µM.

With `CCOc1cc2c(cc1O)/C(=N\N)C[C@@H]1[C@@H]2CC[C@]2(C)[C@@H](O)CC[C@@H]12`, the EC50 is more than 2 µM and the IC50 stood at 0.209 µM. In the case of `COc1cc(C(=O)c2cocc2C(=O)c2ccc3c(c2)OCO3)cc(OC)c1OC`, the result was inactive.

On to `COc1cc(C(=O)N(C(=S)OCc2ccccn2)c2ccccc2)cc(OC)c1OC`, for which the EC50 is more than 200 µM and the IC50 came to 74.1 µM.

Take `COc1ccc(-c2cc(-c3ccco3)c(C#N)c(=O)n2C2OC(OC(=O)c3ccccc3)C(OC(=O)c3ccccc3)C2OC(=O)c2ccccc2)cc1` (stereo not drawn): the EC50 was more than 7.24 µM and the IC50 was more than 7.24 µM.

For the compound `Cc1cccc2c1[C@]13OC(C)[C@]4(C)CC5OC(=O)[C@@]1(C)[C@@H]5[C@]34C(=O)O2` (stereo partly drawn), the EC50 is more than 200 µM and the IC50 was more than 200 µM. Turning to `C=CCOC1=C2CC[C@H](O)[C@@]2(C)CCC1=O`, the outcome was inactive. For `COc1cc2c3c([nH]c2c(OC)c1OC)CCN(Cc1ccccc1)C3`, the EC50 was more than 200 µM and the IC50 came out at 66.1 µM.

The EC50 is the concentration needed to bring the measured effect to its halfway point. What is called IC50 is the concentration needed to halve the response being measured. A low value points to greater potency in that assay.
